The target of data set [1] is 78 targets (CEREP) other than the 5-HT6 receptor. In words: CEREP panel of 78 targets. It is filed as binding. To be noted: all but the 5-HT2B and 5-HT2A receptors, read-out: Ki at ancillary targets.
The next data set concerns the target T1, h-5-HT6 receptor (Homo sapiens, UniProt P50406).
T1 construct: expressed in transfected cells
Kind of data set: 5-HT6 receptor binding assay ([3H]-LSD displacement, HEK293 membranes). Here is the method: The cells were collected by centrifugation at 500 g for 10 min. at 4° C., washed with PBS and centrifuged (500 g, 10 min. 4° C.). The pellets were stored at −80° C. until use. For membrane preparation, the thawed cell pellet was resuspended in ice-cold sucrose buffer (0.25 M sucrose, 10 mM Hepes (pH 7.4), 1 mM Phenylmethylsulfonyl fluoride (PMSF) in DMSO, […] Pepstatin-A, 3 mM EDTA, 0.025% Bacitracin) and homogenized with a Branson Sonifier W-250 (Settings: Timer 4; Output Control 3; Duty Cycle constant; 2 to 3 cycles). Cell disruption was checked with the aid of a microscope. Remaining unbroken cells were pelleted at 1,000 g for 10 min. at 4° C. […] Protein concentration was determined (BCA-Kit; Pierce) and aliquots stored at −80° C. or in liquid nitrogen for long-term storage.
(§1) All receptor binding experiments were carried out in the corresponding assay buffer in a total volume of 200 μl in the presence of various concentrations of test compound (10^−5 M to 10^−9 M, tenfold serial dilution, duplicate determinations). […] Radioactivity was measured in a Microbeta Trilux two hours after the addition of the scintillation mixture. […]
Data derived from liquid scintillation counting were analyzed by iterative non-linear regression analysis with the use of the Statistical Analysis System (SAS): a program similar to “LIGAND” as described by Munson and Rodbard (Anal. Biochem. 1980, 107, 220-239). […]

Another data set concerns the target T2, h-5-HT2A receptor (Homo sapiens, UniProt P28223).
T2 construct: purchased Perkin Elmer ES-313-M400UA; host or cells: CHO-K1
In words: 5-HT2A receptor binding assay ([125I]-DOI displacement, CHO-K1 membranes). As to conditions: for Selectivity for 5-HT6 v. 5-HT2A: ratio of human 5-HT2A Ki to human 5-HT6 Ki. As for the experimental part: Cells from stable clonal cell lines expressing the corresponding receptor (5-HT6, 5-HT2A or 5-HT2B receptors) were washed with PBS with 0.02% EDTA. The cells were collected by centrifugation at 500 g for 10 min. at 4° C., washed with PBS and centrifuged (500 g, 10 min. 4° C.). The pellets were stored at −80° C. until use. For membrane preparation, the thawed cell pellet was resuspended in ice-cold sucrose buffer (0.25 M sucrose, 10 mM Hepes (pH 7.4), 1 mM Phenylmethylsulfonyl fluoride (PMSF) in DMSO, […] Pepstatin-A, 3 mM EDTA, 0.025% Bacitracin) and homogenized with a Branson Sonifier W-250 (Settings: Timer 4; Output Control 3; Duty Cycle constant; 2 to 3 cycles). Cell disruption was checked with the aid of a microscope. Remaining unbroken cells were pelleted at 1,000 g for 10 min. at 4° C. The sucrose buffer supernatant was then centrifuged at 60,000 g for 1 h at 4° C. (Beckman Ultrazentrifuge XL 80). The pellet was resuspended in 30 ml ice-cold Tris buffer (20 mM TRIS (pH 7.4), […] Pepstatin A, 0.1 mM PMSF, 3 mM EDTA) by pipetting through a 10 ml serological pipet and centrifuged for 1 h at 4° C. at 60,000 g. A final resuspension was performed in a small volume of ice-cold Tris buffer (see above) by pressing through a serological pipet followed by ultrasonic treatment with a Branson Sonifier W-250 (Settings: Timer 1; Output Control 3; Duty Cycle constant; 1 cycle). Protein concentration was determined (BCA-Kit; Pierce) and aliquots stored at −80° C. or in liquid nitrogen for long-term storage.
All receptor binding experiments were carried out in the corresponding assay buffer in a total volume of 200 μl in the presence of various concentrations of test compound (10^−5 M to 10^−9 M, tenfold serial dilution, duplicate determinations). The assays were terminated by filtration on polyethylenimine (PEI 0.1% or 0.3%) presoaked Packard Unifilter Plates (GF/C or GF/B) with a Tomtec MachIII U 96well-plate harvester. After the plates had been dried for 2 h at 55° C. in a drying chamber scintillation cocktail (BetaPlate Scint; PerkinElmer) was added. Radioactivity was measured in a Microbeta Trilux two hours after the addition of the scintillation mixture. Data derived from liquid scintillation counting were analyzed by iterative non-linear regression analysis with the use of the Statistical Analysis System (SAS): a program similar to “LIGAND” as described by Munson and Rodbard (Analytical Biochemistry 107, 220-239 (1980).
CHO-K1 cell membranes expressing h-5-HT2A receptor (Perkin Elmer ES-313-M400UA) were thawed, diluted in assay buffer (50 mM Tris-HCl, 5 mM MgCl2, 1 mM EGTA, pH 7.4) to a final membrane protein concentration of 25 μg/ml and homogenized by gentle vortexing. For the competition binding studies; 20 μl of varying concentrations of test compounds in assay buffer (or 20 μl of assay buffer), 80 μl of 0.1 nM [^125I]—R—O-DOI (2,5-dimethoxy-4-iodo-amphetamine) (Perkin Elmer NEX-255) were incubated with 100 μl of homogenized membranes (total volume 200 μl). Non-specific binding was determined in the presence of 10 μM (±)-DOI (Sigma D-101). After a 1 hr incubation at room temperature, the binding reaction was harvested (Tomtec Mach III U Harvester) through 96-well GF/C filter plates (Perkin Elmer) presoaked for 1 hr with 20 μl per well of 0.3% polyethylene-imine (PEI). Harvested plates were washed twice with ice-cold assay buffer and dried prior to addition of 35 μl scintillator (BetaplateScint, Perkin Elmer). The radioactivity was determined by liquid scintillation spectrometry in a MicroBeta (Perkin Elmer) plate counter.
Data derived from liquid scintillation counting were analyzed by iterative non-linear regression analysis with the use of the Statistical Analysis System (SAS): a program similar to “LIGAND” as described by Munson and Rodbard (Anal. Biochem. 1980, 107, 220-239). Fitting was performed according to formulae described by Feldman (Anal. Biochem. 1972, 48, 317-338). […]

Data set [2] can be described thus: Rat PK (0.05 mg/kg, iv), plasma and brain levels. As to conditions: for Free B/P Ratio: free brain concentration divided by free plasma concentration. Format: in vivo.
The next data set in a line: Rat microsome stability. It is filed as in vitro ADME. To be noted: rat microsomes, read-out: Rat microsome T1/2.
In the next data set the target is T3, h-5-HT2B receptor (Homo sapiens, UniProt P41595).
T3 construct: purchased Perkin Elmer ES-314-M400UA; host or cells: CHO-K1
T3 sequence (P41595 whole entry): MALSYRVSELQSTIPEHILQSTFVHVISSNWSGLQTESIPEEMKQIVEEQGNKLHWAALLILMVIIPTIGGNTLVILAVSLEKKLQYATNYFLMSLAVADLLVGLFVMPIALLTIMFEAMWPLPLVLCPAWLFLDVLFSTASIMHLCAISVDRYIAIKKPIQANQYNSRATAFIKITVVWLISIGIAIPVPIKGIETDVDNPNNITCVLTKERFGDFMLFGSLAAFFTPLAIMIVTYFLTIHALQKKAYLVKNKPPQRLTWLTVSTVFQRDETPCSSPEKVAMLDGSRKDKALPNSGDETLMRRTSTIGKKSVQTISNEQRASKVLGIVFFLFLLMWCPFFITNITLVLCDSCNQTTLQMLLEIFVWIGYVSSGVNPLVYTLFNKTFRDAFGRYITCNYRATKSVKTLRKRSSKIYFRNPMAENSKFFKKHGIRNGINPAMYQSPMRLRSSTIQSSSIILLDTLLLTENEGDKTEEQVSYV
Kind of data set: 5-HT2B receptor binding assay ([125I]-DOI displacement, CHO-K1 membranes). As for the experimental part:
Cells from stable clonal cell lines expressing the corresponding receptor (5-HT6, 5-HT2A or 5-HT2B receptors) were washed with PBS with 0.02% EDTA. The cells were collected by centrifugation at 500 g for 10 min. at 4° C., washed with PBS and centrifuged (500 g, 10 min. 4° C.). The pellets were stored at −80° C. until use. For membrane preparation, the thawed cell pellet was resuspended in ice-cold sucrose buffer (0.25 M sucrose, 10 mM Hepes (pH 7.4), 1 mM Phenylmethylsulfonyl fluoride (PMSF) in DMSO, […] Pepstatin-A, 3 mM EDTA, 0.025% Bacitracin) and homogenized with a Branson Sonifier W-250 (Settings: Timer 4; Output Control 3; Duty Cycle constant; 2 to 3 cycles). Cell disruption was checked with the aid of a microscope. Remaining unbroken cells were pelleted at 1,000 g for 10 min. at 4° C. The sucrose buffer supernatant was then centrifuged at 60,000 g for 1 h at 4° C. (Beckman Ultrazentrifuge XL 80). […] Protein concentration was determined (BCA-Kit; Pierce) and aliquots stored at −80° C. or in liquid nitrogen for long-term storage.
as §1

The target in a further data set is Rat 5-HT6 (Rattus norvegicus, UniProt P31388). Kind of data set: Rat 5-HT6 binding.
Chain of Rat 5-HT6 (P31388 whole entry): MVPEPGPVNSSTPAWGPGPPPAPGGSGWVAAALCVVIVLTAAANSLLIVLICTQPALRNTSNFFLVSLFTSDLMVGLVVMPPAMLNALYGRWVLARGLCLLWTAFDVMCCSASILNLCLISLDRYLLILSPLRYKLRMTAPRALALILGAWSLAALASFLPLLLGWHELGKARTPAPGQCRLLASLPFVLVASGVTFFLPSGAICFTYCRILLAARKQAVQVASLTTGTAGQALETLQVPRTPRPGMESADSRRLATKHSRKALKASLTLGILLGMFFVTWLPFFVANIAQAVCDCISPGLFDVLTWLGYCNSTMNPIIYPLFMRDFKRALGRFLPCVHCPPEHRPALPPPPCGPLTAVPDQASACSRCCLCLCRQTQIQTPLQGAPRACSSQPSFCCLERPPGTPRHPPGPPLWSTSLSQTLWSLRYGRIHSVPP
For another data set, the target named is 5-HT2a (Homo sapiens, UniProt P28223). As to conditions: background statement on the known PET ligand; cited from earlier work.
Chain of 5-HT2a (P28223 whole entry): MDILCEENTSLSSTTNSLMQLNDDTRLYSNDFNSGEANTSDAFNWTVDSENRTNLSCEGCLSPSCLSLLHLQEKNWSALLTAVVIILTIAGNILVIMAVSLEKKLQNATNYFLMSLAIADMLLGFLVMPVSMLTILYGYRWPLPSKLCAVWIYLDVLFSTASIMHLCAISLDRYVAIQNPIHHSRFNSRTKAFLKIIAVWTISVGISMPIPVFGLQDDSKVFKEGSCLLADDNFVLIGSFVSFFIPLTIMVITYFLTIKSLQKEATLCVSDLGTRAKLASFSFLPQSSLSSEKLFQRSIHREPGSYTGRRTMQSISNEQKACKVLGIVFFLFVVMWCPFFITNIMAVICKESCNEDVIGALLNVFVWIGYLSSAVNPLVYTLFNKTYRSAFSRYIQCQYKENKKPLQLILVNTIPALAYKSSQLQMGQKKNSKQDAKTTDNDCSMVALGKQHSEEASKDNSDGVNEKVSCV

Where two headings read alike, the source gives them in different places.

T2 sequence (P28223 whole entry): as above
T1 sequence (P50406 whole entry): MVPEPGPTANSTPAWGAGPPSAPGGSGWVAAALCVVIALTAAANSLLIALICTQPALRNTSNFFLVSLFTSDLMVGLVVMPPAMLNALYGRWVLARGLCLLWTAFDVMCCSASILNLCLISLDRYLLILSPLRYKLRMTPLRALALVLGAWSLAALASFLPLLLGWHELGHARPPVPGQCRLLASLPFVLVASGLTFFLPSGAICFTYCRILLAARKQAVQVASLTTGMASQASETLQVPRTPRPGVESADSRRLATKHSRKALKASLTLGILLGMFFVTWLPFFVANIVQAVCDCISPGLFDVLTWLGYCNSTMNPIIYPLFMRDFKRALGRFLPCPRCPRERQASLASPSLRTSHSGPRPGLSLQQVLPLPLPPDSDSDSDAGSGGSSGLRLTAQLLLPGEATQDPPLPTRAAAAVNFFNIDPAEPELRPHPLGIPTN

In the case of `CN1CCC(c2cccc3cc(S(=O)(=O)c4ccccn4)cnc23)CC1` [Example 1, 8-(1-methylpiperidin-4-yl)-3-(pyridin-2-ylsulfonyl)quinoline], the Ki in [1] was over 1000 nM. For the same molecule, affinity at h-5-HT6 receptor was put at a Ki of 0.22 nM. Also, on h-5-HT2A receptor, the Ki is 123 nM, the “selectivity for 5-HT6 over 5-HT2A” value was determined as 559 fold and the “Selectivity for 5-HT6 v. 5-HT2A” value is 559 x. For the same molecule, in data set [2] (3 min after dose), the “Free [brain]” value turned out to be 21.5 ng/g, the “Plasma Conc.” value stood at 104.5 ng/mL and the “Free B/P Ratio” value came out at 0.21. Further, in [2] (5 min after dose), the “Free [brain]” value was found to be 23.1 ng/g, the “Plasma Conc.” value was found to be 83.5 ng/mL and the “Free B/P Ratio” value amounted to 0.28. Also, the half-life in “Rat microsome stability” is 1.73 h. For the same molecule, on h-5-HT2B receptor, the Ki came out at 144 nM and the “selectivity for 5-HT6 over 5-HT2B” value is 654.5 fold.
`[3H]C([3H])([3H])N1CCC(c2cccc3cc(S(=O)(=O)c4ccccn4)cnc23)CC1` [Example 2, 8-(1-([^3H]methyl)piperidin-4-yl)-3-(pyridin-2-ylsulfonyl)quinoline]: for the setting “5 min after dose”, the “F. Cortex/Cer.” value is on record as 0.9, the Hippo./Cer. was determined as 1.06 and the Striatum/Cer. was found to be 0.81. Moreover, for the setting “40 min after dose”, the “F. Cortex/Cer.” value worked out at 1.20, the Hippo./Cer. worked out at 1.07 and the Striatum/Cer. came out at 1.31.
Consider `CN1CCN(c2cccc3cc(S(=O)(=O)c4cccc(F)c4)cnc23)CC1` [GSK-215083, reference compound], for which, at Rat 5-HT6, the Ki came out at 0.16 nM. This molecule showed a Ki on h-5-HT6 receptor of 0.34 nM. For the same molecule, at h-5-HT2A receptor, affinity was put at a Ki of 0.395 nM, the “selectivity for 5-HT6 over 5-HT2A” value was determined as 1.16 fold and the “Selectivity for 5-HT6 v. 5-HT2A” value worked out at 1.16 x. Further, the half-life in the data set “Rat microsome stability” is 1.04 h.
For the molecule `CN1CCN(c2cccc3cc(S(=O)(=O)c4cccc(F)c4)cnc23)CC1` [[^11C]GSK-215083], at 5-HT2a, the Ki is 0.395 nM.

The Ki is a dissociation constant, usually derived from enzyme kinetics or from competition with a known ligand.
